Results reported in article PMC4520450, “Procyanidins Negatively Affect the Activity of the Phosphatases of Regenerating Liver” (PLoS ONE, 2015).

Experiments:
PRL-2 = molecular target: T1, PRL-2 (Homo sapiens, UniProt Q12974); experiment: DiFMUP phosphatase activity assay for PRLs; assay type: biochemical; settings: 50 nM PRL-2, 30 min preincubation, 25°C, 24 μM DiFMUP; mean ± SEM (n = 3–5); read-out: IC50 (Ki) PRL-2
T1 construct: His-TEV (cleaved yes); made in house
T1 sequence (Q12974 1-167): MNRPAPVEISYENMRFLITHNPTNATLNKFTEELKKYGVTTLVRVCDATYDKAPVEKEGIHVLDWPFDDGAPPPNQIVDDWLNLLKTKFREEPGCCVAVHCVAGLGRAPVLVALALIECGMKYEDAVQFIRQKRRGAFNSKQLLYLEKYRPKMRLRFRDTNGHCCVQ

PP2A = molecular target: T2, PP2A (Homo sapiens, UniProt P67775); experiment: DiFMUP assay for PP2A; assay type: biochemical; settings: 0.05 U PP2A, 30 min preincubation, 25°C, no BSA, mean ± SEM (n = 3–5), read-out: IC50 (Ki) PP2A
T2 construct: purified from human red blood cells; purchased Merck Millipore; host or cells: human red blood cells
T2 sequence (P67775 whole entry): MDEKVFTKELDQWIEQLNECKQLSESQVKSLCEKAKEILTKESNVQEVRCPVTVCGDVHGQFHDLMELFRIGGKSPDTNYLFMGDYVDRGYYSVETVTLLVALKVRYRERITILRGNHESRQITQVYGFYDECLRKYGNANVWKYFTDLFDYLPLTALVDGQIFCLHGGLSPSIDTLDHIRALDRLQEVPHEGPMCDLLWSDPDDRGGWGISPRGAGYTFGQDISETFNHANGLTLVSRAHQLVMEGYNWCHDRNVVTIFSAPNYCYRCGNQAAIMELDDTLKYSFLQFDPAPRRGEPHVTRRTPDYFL
T2 sequence (P30153 2-589 partner limits assumed): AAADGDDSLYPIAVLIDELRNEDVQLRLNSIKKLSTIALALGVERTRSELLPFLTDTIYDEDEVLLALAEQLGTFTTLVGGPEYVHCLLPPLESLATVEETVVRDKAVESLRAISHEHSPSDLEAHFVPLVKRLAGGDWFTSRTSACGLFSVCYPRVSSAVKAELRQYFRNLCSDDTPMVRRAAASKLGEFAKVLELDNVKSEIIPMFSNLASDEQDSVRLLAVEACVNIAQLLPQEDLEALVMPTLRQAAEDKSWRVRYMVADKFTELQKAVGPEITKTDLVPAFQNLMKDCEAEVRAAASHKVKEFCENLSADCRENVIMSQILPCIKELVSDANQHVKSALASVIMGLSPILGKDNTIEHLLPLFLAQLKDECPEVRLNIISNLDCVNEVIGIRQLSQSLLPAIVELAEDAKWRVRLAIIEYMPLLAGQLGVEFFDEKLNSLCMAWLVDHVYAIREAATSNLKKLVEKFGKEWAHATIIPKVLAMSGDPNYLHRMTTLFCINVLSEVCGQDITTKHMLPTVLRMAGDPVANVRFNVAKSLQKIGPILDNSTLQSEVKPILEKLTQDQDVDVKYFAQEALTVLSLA
Method: Fig 2 Effect of polyphenolic compounds 8 (A), 9 (B), 10 (C) and 11 (D) on the phosphatase activity of PRL-1, PRL-2, PRL-3, PP1, and PP2A. Proteins were incubated for 30 min with 0–1000 μM of the corresponding procyandin 8–11. Phosphatase activity was measured in the presence of DiFMUP at 25°C using the concentration corresponding to the KM of each protein. The KM for PRLs was determined separately (PRL-3 = 21 μM, PRL-2 and PRL-1 = 24 μM). The KM for PP1 (91 μM) and for PP2A (100 μM) was taken from the literature. Protein concentrations are 50 nM for all PRLs and 2 mU for PP1 and 0.05 U for PP2A (see the Experimental Procedures). Phosphatase activity in the absence of inhibitors was set as 100%. Data represent means ± standard errors of the mean (n = 3–5).
BSA, which is usually supplemented to the assay buffer for stabilizing the PPs was however excluded, as BSA is known to form complexes with polyphenolic compounds [40–42] and thus would decrease the concentrations of the inhibitor in the assay. […] In contrast, the phosphatase activity of PP2A was suppressed to a much lesser extent with weak (for trimer 9 and hexamer 11) and strong statistical significance (dimer 8 and tetramer 10). Thus our results corroborate the data reported previously.
Chemicals and vendors were as follows: Synthesis of Procyanidins (dimer to dodecamer) was done as previously reported. EGCG, EGC, ECG and EC were synthesized as previously reported or purchased from Sigma. (+)-Catechin and 3-(4,5-dimethylthiazol-2-yl)-2,5-diphenyltetrazolium bromide (MTT) were obtained from Sigma. 6,8-Difluoro-4-Methylumbelliferyl Phosphate (DiFMUP), propidium iodide and calcein AM were from lifescience technologies. Cell dissociation solution (10X) was purchased from amsbio. PP1c (recombinant from E. coli) was purchased from NewEngland Biolabs and PP2A (purified from human red blood cells, contains different subunits according to manufacturer) from Merck Millipore. Transwell plates (BRANDplates) and insert stripes for the migration assay were purchased from Brand GmbH. Black 96 well plates (96F Nunclon Delta) were purchased from Thermo Scientific. Transparent 96 well assay plates with UV transparent bottom were purchased from Corning Inc. Wound healing experiments were carried out with μ-dish 35 mm culture inserts, which were purchased from Ibidi.
DiFMUP assay for PP2A: In a final reaction volume of 100 μL PP2A (0.05 U final concentration, according to manufacturer’s instructions) were incubated with decreasing concentrations of the inhibitory polyphenols for 30 minutes at 25°C. The assay buffer contained 50 mM TrisCl (pH 7.5), 250 mM NaCl, 0.1 mM EDTA, 1 mM MnCl2, and 2 mM dithiothreitol (DTT). […] Monitoring of the fluorescent dephosphorylation product was monitored and data analyzed as described above.

| SMILES | IC50 (PRL-2) [µM] | IC50 (PP2A) [µM] |
| --- | --- | --- |
| Oc1cc(O)c2c(c1)O[C@H](c1ccc(O)c(O)c1)[C@@H](O)[C@@H]2c1c(O)cc(O)c2c1O[C@H](c1ccc(O)c(O)c1)[C@@H](O)C2 [Procyanidin B3 (8), Procyanidin B3] | 103 ± 1.1 | > 1000 |
| Oc1cc(O)c2c(c1)O[C@H](c1ccc(O)c(O)c1)[C@@H](O)[C@@H]2c1c(O)cc(O)c2c1O[C@H](c1ccc(O)c(O)c1)[C@@H](O)[C@@H]2c1c(O)cc(O)c2c1O[C@H](c1ccc(O)c(O)c1)[C@@H](O)C2 [Procyanidin C2 (9), Procyanidin C2] | 15.2 ± 1.4 | 213 ± 72 |
